Like-named read-outs stand apart in the source and are kept apart here.
Columns and labels:
[1] = tested on: OXPHOS gene expression; assay type: cell-based, mouse; details: Conc 20 μM; for GE-HTS (composite Z-score): normalized score vs mock-treated (DMSO) wells
[2] = tested on: C2C12 myotubes; details: Conc 20 μM; for Viability (composite Z-score): normalized score vs mock-treated (DMSO) wells
[3] = tested on: nuOXPHOS transcripts; assay type: cell-based, mouse; details: Conc 20 μM; for nucOX (composite Z-score): normalized score vs mock-treated (DMSO) wells
[4] = tested on: cytochrome c; assay type: cell-based, mouse; details: Conc 20 μM; for cyt c (composite Z-score): normalized score vs mock-treated (DMSO) wells
[5] = tested on: cellular dehydrogenase activity; details: Conc 20 μM; for MTT (composite Z-score): normalized score vs mock-treated (DMSO) wells
[6] = tested on: mitochondrial membrane potential; assay type: cell-based, mouse; details: Conc 20 μM; for ΔΨm (composite Z-score): normalized score vs mock-treated (DMSO) wells
[7] = tested on: mtOXPHOS transcripts; assay type: cell-based, mouse; details: Conc 20 μM; for mitoOX (composite Z-score): normalized score vs mock-treated (DMSO) wells
[8] = tested on: reactive oxygen species; assay type: cell-based, mouse; details: Conc 20 μM; for ROS (composite Z-score): normalized score vs mock-treated (DMSO) wells
[9] = normalized composite Z-score vs mock-treated (DMSO) wells
[10] = composite Z-score vs mock-treated (DMSO) wells

**Q.** With `CCOc1ccc(C(=O)c2ccc(O)c(O)c2O)cc1` [2,3,4-trihydroxy-4′-ethoxybenzophenone] as the compound, how does the “GE-HTS (composite Z-score)” value [1] read?
**A.** The value was −0.823.

**Q.** And the “Viability (composite Z-score)” value [2]?
**A.** Its value is −0.413.

**Q.** What about the “nucOX (composite Z-score)” value [3] of the same compound?
**A.** The value was −0.896.

**Q.** What about the “cyt c (composite Z-score)” value [4] of the same compound?
**A.** Its value is 0.440.

**Q.** What about the “MTT (composite Z-score)” value [5] of the same compound?
**A.** Its value is −2.368.

**Q.** What about the “ΔΨm (composite Z-score)” value [6] of the same compound?
**A.** Its value is −1.185.

**Q.** What about the “mitoOX (composite Z-score)” value [7] of the same compound?
**A.** The value was −0.478.

**Q.** What about the “ROS (composite Z-score)” value [8] of the same compound?
**A.** Its value is 0.052.

**Q.** For `COc1ccc(C(=O)c2ccc(O)cc2)c(O)c1O` [2,3,4′-trihydroxy-4-methoxybenzophenone], which GE-HTS [1, 9] is on record?
**A.** Its GE-HTS is −1.557.

**Q.** What about the Viability [2, 9] of the same compound?
**A.** Its Viability is −0.403.

**Q.** And the nucOX [3, 9]?
**A.** The nucOX was −1.472.

**Q.** What about the cyt c [4, 9] of the same compound?
**A.** Its cyt c is 0.378.

**Q.** What about the MTT [5, 9] of the same compound?
**A.** Its MTT is −0.475.

**Q.** And the ΔΨm [6, 9]?
**A.** The ΔΨm was −1.356.

**Q.** What about the mitoOX [7, 9] of the same compound?
**A.** Its mitoOX is −1.476.

**Q.** What about the ROS [8, 9] of the same compound?
**A.** The ROS was −0.472.

**Q.** With `CC(=O)O[C@@H]1C[C@H]2C(C)(C)CCC(=O)[C@]2(C)[C@H]2CC[C@@]3(C)[C@H](c4ccoc4)OC(=O)[C@H]4O[C@]43[C@@]21C` [2,3-dihydroisogedunin] as the compound, how does the “GE-HTS (composite Z-score)” value [1] read?
**A.** Its value is −0.471.

**Q.** And the “Viability (composite Z-score)” value [2]?
**A.** The value was 0.804.

**Q.** And the “nucOX (composite Z-score)” value [3]?
**A.** The value was −0.444.

**Q.** And the “cyt c (composite Z-score)” value [4]?
**A.** The value was 0.184.

**Q.** What about the “MTT (composite Z-score)” value [5] of the same compound?
**A.** The value was −1.287.

**Q.** And the “ΔΨm (composite Z-score)” value [6]?
**A.** The value was 0.221.

**Q.** What about the “mitoOX (composite Z-score)” value [7] of the same compound?
**A.** Its value is −0.449.

**Q.** What about the “ROS (composite Z-score)” value [8] of the same compound?
**A.** The value was 0.780.

**Q.** For `Oc1nc2cc(Cl)c(Cl)cc2nc1O` [2,3-dihydroxy-6,7-dichloroquinoxaline], which “GE-HTS (composite Z-score)” value [1] is on record?
**A.** Its value is −0.724.

**Q.** What about the “Viability (composite Z-score)” value [2] of the same compound?
**A.** Its value is −0.077.

**Q.** And the “nucOX (composite Z-score)” value [3]?
**A.** Its value is −0.712.

**Q.** And the “cyt c (composite Z-score)” value [4]?
**A.** The value was 0.279.

**Q.** And the “MTT (composite Z-score)” value [5]?
**A.** The value was −1.458.

**Q.** What about the “ΔΨm (composite Z-score)” value [6] of the same compound?
**A.** The value was −1.689.

**Q.** And the “mitoOX (composite Z-score)” value [7]?
**A.** Its value is −0.565.

**Q.** And the “ROS (composite Z-score)” value [8]?
**A.** The value was 0.085.

**Q.** For `COC1=CC(=O)C(C(=O)c2ccccc2)=CC1=O` [2-benzoyl-5-methoxybenzoquinone], which GE-HTS ([1]; composite Z-score vs DMSO) is on record?
**A.** Its GE-HTS is −0.699.

**Q.** And the Viability ([2]; composite Z-score vs DMSO)?
**A.** Its Viability is −0.284.

**Q.** And the nucOX ([3]; composite Z-score vs DMSO)?
**A.** The nucOX was −0.511.

**Q.** What about the cyt c ([4]; composite Z-score vs DMSO) of the same compound?
**A.** Its cyt c is 0.206.

**Q.** What about the MTT ([5]; composite Z-score vs DMSO) of the same compound?
**A.** The MTT was −1.489.

**Q.** What about the ΔΨm ([6]; composite Z-score vs DMSO) of the same compound?
**A.** The ΔΨm was −0.229.

**Q.** And the mitoOX ([7]; composite Z-score vs DMSO)?
**A.** Its mitoOX is −0.985.

**Q.** What about the ROS ([8]; composite Z-score vs DMSO) of the same compound?
**A.** The ROS was −0.542.

**Q.** For `CCOC(=O)C1(O)Oc2cc(OC)cc(OC)c2C(=O)C1c1ccccc1` (stereo not drawn) [2-ethoxycarbonyl-2-hydroxy-5,7-dimethoxyisoflavanone, reference compound], which GE-HTS [1, 10] is on record?
**A.** Its GE-HTS is 0.280.

**Q.** What about the Viability [2, 10] of the same compound?
**A.** The Viability was 0.511.

**Q.** And the nucOX [3, 10]?
**A.** Its nucOX is 0.232.

**Q.** And the cyt c [4, 10]?
**A.** Its cyt c is 0.161.

**Q.** And the MTT [5, 10]?
**A.** Its MTT is −0.260.

**Q.** And the ΔΨm [6, 10]?
**A.** The ΔΨm was 0.215.

**Q.** What about the mitoOX [7, 10] of the same compound?
**A.** Its mitoOX is 0.273.

**Q.** And the ROS [8, 10]?
**A.** Its ROS is 0.774.

**Q.** `O=c1c2ccccc2oc2ccc(O)cc12` [2-hydroxyxanthone] was tested. Which GE-HTS ([1]; composite Z-score vs DMSO) did it give?
**A.** The GE-HTS was −0.364.

**Q.** What about the Viability ([2]; composite Z-score vs DMSO) of the same compound?
**A.** Its Viability is −0.402.

**Q.** And the nucOX ([3]; composite Z-score vs DMSO)?
**A.** The nucOX was −0.173.

**Q.** What about the cyt c ([4]; composite Z-score vs DMSO) of the same compound?
**A.** The cyt c was 0.238.

**Q.** And the MTT ([5]; composite Z-score vs DMSO)?
**A.** Its MTT is −1.863.

**Q.** And the ΔΨm ([6]; composite Z-score vs DMSO)?
**A.** The ΔΨm was −0.245.

**Q.** What about the mitoOX ([7]; composite Z-score vs DMSO) of the same compound?
**A.** Its mitoOX is −0.652.

**Q.** What about the ROS ([8]; composite Z-score vs DMSO) of the same compound?
**A.** The ROS was 1.660.

**Q.** `CC(C)=CCc1c(O)cc(C)oc1=O` [2-isoprenyl-3-hydroxy-5-methyl-a-pyrone] was tested. Which GE-HTS [1, 10] did it give?
**A.** The GE-HTS was 0.309.

**Q.** What about the Viability [2, 10] of the same compound?
**A.** The Viability was −1.025.

**Q.** And the nucOX [3, 10]?
**A.** The nucOX was 0.277.

**Q.** What about the cyt c [4, 10] of the same compound?
**A.** The cyt c was −0.568.

**Q.** What about the MTT [5, 10] of the same compound?
**A.** Its MTT is 0.055.

**Q.** What about the ΔΨm [6, 10] of the same compound?
**A.** Its ΔΨm is −0.641.

**Q.** And the mitoOX [7, 10]?
**A.** The mitoOX was 0.271.

**Q.** And the ROS [8, 10]?
**A.** The ROS was 1.032.

**Q.** Which results are given for `COc1cccc(C=CC(=O)O)c1C(C)C` [2-isopropyl-3-methoxycinnamic acid]?
**A.** GE-HTS [1, 9]: 0.153; Viability [2, 9]: 0.040; nucOX [3, 9]: 0.153; cyt c [4, 9]: 0.274; MTT [5, 9]: −2.002; ΔΨm [6, 9]: −0.155; mitoOX [7, 9]: 0.071; ROS [8, 9]: 0.433

**Q.** `Sc1nc2ccccc2s1` [2-mercaptobenzothiazole] was tested. Which “GE-HTS (composite Z-score)” value [1] did it give?
**A.** The value was −0.211.

**Q.** What about the “Viability (composite Z-score)” value [2] of the same compound?
**A.** The value was −0.830.

**Q.** What about the “nucOX (composite Z-score)” value [3] of the same compound?
**A.** The value was −0.231.

**Q.** What about the “cyt c (composite Z-score)” value [4] of the same compound?
**A.** The value was −0.026.

**Q.** What about the “MTT (composite Z-score)” value [5] of the same compound?
**A.** The value was −0.672.

**Q.** And the “ΔΨm (composite Z-score)” value [6]?
**A.** Its value is −0.486.

**Q.** What about the “mitoOX (composite Z-score)” value [7] of the same compound?
**A.** Its value is −0.097.

**Q.** And the “ROS (composite Z-score)” value [8]?
**A.** The value was 0.354.

**Q.** With `COc1c(O)cccc1O` [2-methoxyresorcinol] as the compound, how does the “GE-HTS (composite Z-score)” value [1] read?
**A.** The value was 0.218.

**Q.** What about the “Viability (composite Z-score)” value [2] of the same compound?
**A.** The value was 0.514.

**Q.** And the “nucOX (composite Z-score)” value [3]?
**A.** The value was −0.150.

**Q.** And the “cyt c (composite Z-score)” value [4]?
**A.** The value was −0.146.

**Q.** What about the “MTT (composite Z-score)” value [5] of the same compound?
**A.** The value was 0.266.

**Q.** And the “ΔΨm (composite Z-score)” value [6]?
**A.** The value was −0.536.

**Q.** What about the “mitoOX (composite Z-score)” value [7] of the same compound?
**A.** Its value is 0.954.

**Q.** And the “ROS (composite Z-score)” value [8]?
**A.** Its value is 0.864.

**Q.** `COc1ccc2oc3ccccc3c(=O)c2c1` [2-methoxyxanthone] was tested. Which GE-HTS ([1]; composite Z-score vs DMSO) did it give?
**A.** The GE-HTS was −0.467.

**Q.** And the Viability ([2]; composite Z-score vs DMSO)?
**A.** Its Viability is −0.428.

**Q.** And the nucOX ([3]; composite Z-score vs DMSO)?
**A.** Its nucOX is −0.710.

**Q.** What about the cyt c ([4]; composite Z-score vs DMSO) of the same compound?
**A.** The cyt c was 1.007.

**Q.** And the MTT ([5]; composite Z-score vs DMSO)?
**A.** Its MTT is −1.044.

**Q.** What about the ΔΨm ([6]; composite Z-score vs DMSO) of the same compound?
**A.** The ΔΨm was 0.540.

**Q.** And the mitoOX ([7]; composite Z-score vs DMSO)?
**A.** The mitoOX was 0.165.

**Q.** What about the ROS ([8]; composite Z-score vs DMSO) of the same compound?
**A.** The ROS was 1.398.
